Experiments:
human PXR = biological target: T1, human PXR (Homo sapiens, UniProt O75469); experiment: PXR transactivation assay (CYP3A4-luciferase reporter)
T1 sequence (O75469 1-434): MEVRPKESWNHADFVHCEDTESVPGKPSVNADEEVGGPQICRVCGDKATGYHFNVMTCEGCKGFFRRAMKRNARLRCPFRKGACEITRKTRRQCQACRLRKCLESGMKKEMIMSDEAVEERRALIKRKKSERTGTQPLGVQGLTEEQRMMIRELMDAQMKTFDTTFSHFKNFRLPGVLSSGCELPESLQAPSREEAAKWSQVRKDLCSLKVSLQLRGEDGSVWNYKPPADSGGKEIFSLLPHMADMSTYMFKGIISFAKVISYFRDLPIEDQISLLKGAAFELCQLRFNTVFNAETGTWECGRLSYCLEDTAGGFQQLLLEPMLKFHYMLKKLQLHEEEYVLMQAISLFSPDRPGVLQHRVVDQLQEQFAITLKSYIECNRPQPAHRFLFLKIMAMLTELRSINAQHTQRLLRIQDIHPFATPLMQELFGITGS
Experimental: Assays were performed similarly as previously described with minor modifications ([30–32]). HepG2 cells (7.5 × 10^5/well) were plated in six-well tissue culture-treated plates. The following day, cells were co-transfected with pGL3-CYP3A4-luc (2 μg/well), pRL-CMV (200 ng/well) and 100 ng/well of either empty vector (pcDNA3), pcDNA3-FLAG-PXR, pCMV6-mPXR or pGL4.53-PGK-PXR using Lipofectamine 3000 (Thermo Fisher Scientific). Twenty-four hours after transfection, cells were trypsinized and suspended in phenol red-free DMEM (Thermo Fisher Scientific) supplemented with 5% charcoal/dextran-treated FBS (HyClone), and 1 × 10^4 cells/well in 25 μl media were added to white 384-well plates. […] After 24 h, the Dual-Glo Luciferase Assay System (Promega) and EnVision microplate reader (PerkinElmer) were used to measure firefly and Renilla luciferase activities. CMV-driven Renilla luciferase was used as an indicator of general transcriptional modulation by the test compounds and is plotted as fold change (FC) relative to DMSO controls. Assays utilizing pGL4.54[luc2/TK], pGL4.53[luc2/PGK], or pGL4.13[luc2/SV40] were similarly performed and normalized. For the PXR-responsive CYP3A4-luciferase reporter, the measured relative light units (RLU) were normalized for each well using equation (1),
RLUT0901317 represents the measured RLU from wells containing 1 μM T0901317. For mPXR assays, 5 μM PCN was used in place of T0901317.

PXR LBD = biological target: T2, PXR LBD (Homo sapiens, UniProt O75469); experiment: TR-FRET PXR LBD ligand binding assay; details: TR-FRET competition with BODIPY FL vindoline
T2 construct: GST-PXR LBD protein (cat. # PV4841) were purchased from Thermo Fisher Scientific; purchased Thermo Fisher Scientific PV4841
T2 sequence (O75469 146-433 limits assumed): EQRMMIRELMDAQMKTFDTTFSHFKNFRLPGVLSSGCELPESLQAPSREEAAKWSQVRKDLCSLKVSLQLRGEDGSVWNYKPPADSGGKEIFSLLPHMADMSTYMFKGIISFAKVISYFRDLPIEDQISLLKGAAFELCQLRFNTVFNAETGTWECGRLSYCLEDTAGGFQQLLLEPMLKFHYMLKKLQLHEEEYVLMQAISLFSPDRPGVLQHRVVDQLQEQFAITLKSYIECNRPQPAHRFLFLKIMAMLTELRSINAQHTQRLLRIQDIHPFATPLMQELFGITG
Experimental: The TR-FRET PXR LBD ligand binding assay measures binding of PXR ligands by competition with a fluorescently labeled ligand (BODIPY FL vindoline) (Supplementary Figure S3) and was performed as previously described with minor modifications ([24]). […] BODIPY FL vindoline (15 μl/well, 133.3 nM in assay buffer) was dispensed into 384-well low-volume black assay plates. An Echo 650 Acoustic Liquid Handler then dispensed 60 nl/well of compound stocks or DMSO.

PXR = experiment: RNA induction in HepaRG: PXR RNA (RT-qPCR); format: cell-based, human; details: differentiated HepaRG, 24 h; FC relative to DMSO
Experimental: (§1) Experiments with HepaRG cells were conducted similarly to previously described ([45]), with modifications. HepaRG cells were seeded in collagen-coated 24-well plates at 5 × 10^5 cells/well in HCM. Cells were differentiated for two weeks with HCM containing 2% DMSO. The cells were then treated with the respective chemicals for 24 h in HCM. The final DMSO concentration for the treatment was 0.5%. Total RNA was isolated from cells with Maxwell 16 LEV SimplyRNA Tissue Kits (Promega), and cDNA was generated from 250 ng of RNA with the SuperScript VILO cDNA Synthesis Kit (Thermo Fisher Scientific). Quantitative real-time polymerase chain reaction (RT-qPCR) was conducted with 2 μl of cDNA using TaqMan Fast Advanced Master Mix (Applied Biosystems) in an Applied Biosystems 7500 Fast Real-Time PCR System. TaqMan gene expression assays specific for CYP3A4 (Hs00604506_m1), PXR (Hs01114267_m1), MYC (Hs00153408_m1) and RNA18S (Hs03928990_g1) were purchased from Thermo Fisher Scientific. Fold induction values were calculated according to the 2^−ΔΔCt method, where ΔCt represents the differences in cycle threshold numbers between the target gene and reference gene and ΔΔCt represents the relative change in these differences between the control and treatment groups ([46]). RNA18S was used as the reference gene for relative quantification of all other genes.

CMV promoter = experiment: CMV-Renilla luciferase reporter; format: cell-based, human; details: HepG2, 24 h; fold change relative to DMSO
CYP3A4 = experiment: RNA induction in HepaRG: CYP3A4 mRNA (RT-qPCR); details: differentiated HepaRG, 24 h
Experimental: as §1

HepG2 cells = experiment: Cytotoxicity assay (CellTiter-Glo); format: cell-based, human; details: HepG2, 24 h
Experimental: HepG2 cells (1 × 10^4/well in 25 μl phenol red-free DMEM supplemented with 5% charcoal/dextran-treated FBS) were plated and treated as in the transactivation assays. After 24 h compound treatment, the CellTiter-Glo Luminescent Cell Viability Assay (Promega) and an EnVision microplate reader were used to assess cytotoxicity. DMSO wells with cells served as negative controls, and wells without cells served as positive controls. The averaged luminescence signal of the wells without cells was subtracted from the luminescence signals of all other wells, and the background subtracted values were normalized to DMSO-treated wells containing cells to obtain percent cell viability.

BET proteins = test system: BET proteins; design: method as in PMID 20871596; details: cited from earlier work

Cc1sc2c(c1C)C(c1ccc(Cl)cc1)=N[C@H](CC(=O)OC(C)(C)C)c1nnc(C)n1-2 [(−)-JQ1]
activation of CYP3A4-luciferase reporter with PXR expressed from a PGK promoter (human PXR; HepG2, 24 h, PGK-driven PXR): retained activation of the CYP3A4-luciferase reporter
activation of PXR-responsive CYP3A4-luciferase reporter (human PXR; human): activated the CYP3A4-luciferase reporter with similar potency but greater efficacy than JQ1
binding to purified PXR LBD (binding potency) (PXR LBD): comparable to rifampicin in binding potencies
PXR RNA expression (PXR): much less than that observed with the BET inhibitors
CMV-Renilla luciferase reporter expression (CMV promoter): only marginally induced the CMV-Renilla luciferase reporter at high concentrations
endogenous CYP3A4 mRNA expression (CYP3A4; FC relative to DMSO): more robustly induced CYP3A4 expression than JQ1
endogenous CYP3A4 mRNA expression on co-treatment with SPA70 (CYP3A4; co-treated with SPA70): without reducing CYP3A4 in the presence of SPA70
cytotoxicity (cell viability) (HepG2 cells): decreased cytotoxicity
cytotoxicity (cell viability) (HepG2 cells; listed as (-)-JQ1): less cytotoxic than JQ1
binding to BET proteins (BET proteins): does not bind BET proteins

Reference: publication PMC10899790, “A bromodomain-independent mechanism of gene regulation by the BET inhibitor JQ1: direct activation of nuclear receptor PXR” (Nucleic Acids Research, 2023)
